Molecular target: Cathepsin-D protease (Homo sapiens, UniProt P07339)
Assay: Protease inhibition assay in picowells with compound photo-released from beads
Type: biochemical
Conditions: compound released from 10 μm TentaGel bead by UV (365 nm, 77 J/cm^2) to approximately 13 μM; incubated 30 min, 37° C.; λex=480 nm, λem=525 nm
Excerpt: Reagents were placed into wells at 4 degrees C. Ultraviolet light at 365 nm was used to cleave the fluorophore from the bead, thereby releasing the fluorophore and separating it from the quencher. […] This setup with bead-bound pepstatin-A and the aspartyl protease can serve as a positive control.
This bead population was introduced into picowells, then buffer exchanged into a protease inhibition assay, including Cathepsin-D protease and Peptide Q-Fluor substrate (λex=480 nm, λem=525 nm). Wells were encapsulated by air, and entire slide exposed to UV (365 nm, 77 J/cm^2), cleaving the photolabile linker, releasing the compound to reach approximately 13 μM. The flowcell was incubated (30 min, 37° C.).
Greater fluorescence means that the enzyme is more catalytically active. […] Images were captured following UV release and Cathepsin-D assay incubation (λex=480 nm, λem=525 nm). Wells containing positive control beads could be identified spectrally by Cy5 fluorophore (λex=645 nm, λem=665 nm, orange false color).

Cathepsin-D protease, sequence (P07339 65-412): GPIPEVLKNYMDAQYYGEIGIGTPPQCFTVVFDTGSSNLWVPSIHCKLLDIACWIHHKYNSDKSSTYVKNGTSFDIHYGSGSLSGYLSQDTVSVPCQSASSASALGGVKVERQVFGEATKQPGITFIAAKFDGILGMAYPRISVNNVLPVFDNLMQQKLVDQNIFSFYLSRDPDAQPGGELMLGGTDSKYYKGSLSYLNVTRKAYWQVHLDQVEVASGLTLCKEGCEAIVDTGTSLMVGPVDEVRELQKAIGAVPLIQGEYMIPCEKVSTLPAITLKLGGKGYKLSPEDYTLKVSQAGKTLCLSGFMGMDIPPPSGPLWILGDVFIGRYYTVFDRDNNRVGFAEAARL

Cathepsin-D inhibition (fluorescence of Peptide Q-Fluor substrate in well): no Cathepsin-D inhibition
SMILES: CC(C)[C@H](NC(=O)OCC1c2ccccc2-c2ccccc21)C(=O)O [negative control beads, Fmoc-Valine]

Reference: patent US12577702B2, “Oligonucleotide encoded chemical libraries, related systems, devices, and methods for detecting, analyzing, quantifying, and testing biologics/genetics” (Plexium, Inc., priority 2020, dated 2026)
